According to PMC7163398 (ACS infectious diseases, 2017):

System: 17S resistant S. aureus USA300 strains
Test: Susceptibility of 17S resistant strains
Assay type: cell-based, Staphylococcus aureus
Conditions: 17S resistant S. aureus USA300 strains tested against 1S

## humimycin A [1S]
  cross-resistance of 17S resistant strains: cross-resistance
